Earlier results, collected in patent publication US12208127B2, “Preparation and use of cannabis nano-formulation” (Apurano Pharmaceuticals GmbH, priority 2020, dated 2025).
Where two headings read alike, the source gives them in different places.

How the values were obtained:
[1] = higher formation after administration
[2] = some pharmacological animal experiments
[3] = i.v. single dose 1 mg

CCCCCc1cc(O)c2c(c1)OC(C)(C)[C@@H]1CCC(C)=C[C@@H]21 [dronabinol as capsule, dronabinol]
formation of 11-OH-THC compared to THC [1]: 3 fold

CCCCCc1cc(O)c2c(c1)OC(C)(C)[C@@H]1CCC(CO)=C[C@@H]21 [Example 11-OH-THC, 11-OH-THC]
psychotropic side effects relative to THC [2]: three to seven
time to tachycardia and psychological high [3]: 3-5 minutes

CCCCCc1cc(O)c2c(c1)OC(C)(C)[C@@H]1CCC(C)=C[C@@H]21 [THC, tetrahydrocannabinol]
average plasma clearance rate (naïve THC users): approximately 36 L/h
average plasma clearance rate (regular users): ~60 L/h
